Assay results from ChEMBL document CHEMBL3885881, “DrugMatrix”.

Organism: Rattus norvegicus
Test: DrugMatrix - Regimen: Daily Repeat
Type: toxicity, organism-based, Sprague-Dawley
Set-up: regimen Daily Repeat, gender Male, age 6-8 weeks
Settings: in vivo, po, route oral GAVAGE, […]; for ABSOLUTE BASOPHIL / ABSOLUTE EOSINOPHIL / ABSOLUTE LYMPHOCYTE / ABSOLUTE MONOCYTE / ABSOLUTE SEGMENTED NEUTROPHIL / BASOPHIL / EOSINOPHIL / ERYTHROCYTE COUNT / HEMATOCRIT / HEMOGLOBIN / LEUKOCYTE COUNT / LYMPHOCYTE / MEAN CORPUSCULAR HEMOGLOBIN / MEAN CORPUSCULAR HEMOGLOBIN CONCENTRATION / MEAN CORPUSCULAR VOLUME / MONOCYTE / NEUTROPHIL / NUCLEATED RED BLOOD CELLS / PLATELET COUNT: tissue Blood; for ALANINE AMINOTRANSFERASE / ALBUMIN / ALKALINE PHOSPHATASE / ASPARTATE AMINOTRANSFERASE / BLOOD UREA NITROGEN / CARBON DIOXIDE / CHLORIDE / CHOLESTEROL / CREATINE PHOSPHOKINASE / CREATININE / GLUCOSE / LACTATE DEHYDROGENASE / LIPASE / PHOSPHORUS / POTASSIUM / SODIUM / TOTAL BILIRUBIN / TOTAL PROTEIN / URIC ACID: tissue Plasma
[1] = 0 mg/kg, 72 h, dose level Control, time 3 day
[2] = 0 mg/kg, 120 h, dose level Control, time 5 day
[3] = 30 mg/kg, 72 h, dose level Low, time 3 day
[4] = 30 mg/kg, 120 h, dose level Low, time 5 day

## Cc1ccc(-c2cc(C(F)(F)F)nn2-c2ccc(S(N)(=O)=O)cc2)cc1 [CELECOXIB]
[1]
  ABSOLUTE BASOPHIL: 0 CELLS/uL
  ABSOLUTE EOSINOPHIL: 104.17 CELLS/uL
  ABSOLUTE LYMPHOCYTE: 14547 CELLS/uL
  ABSOLUTE MONOCYTE: 292 CELLS/uL
  ABSOLUTE SEGMENTED NEUTROPHIL: 1640.17 CELLS/uL
  BASOPHIL: 0%
  EOSINOPHIL: 0.67%
  ERYTHROCYTE COUNT: 5.35 x10E6/uL
  HEMATOCRIT: 33.67%
  HEMOGLOBIN: 13.38 G/DL
  LEUKOCYTE COUNT: 16.58 x10E3/uL
  LYMPHOCYTE: 87.5%
  MEAN CORPUSCULAR HEMOGLOBIN: 25.05 pg
  MEAN CORPUSCULAR HEMOGLOBIN CONCENTRATION: 39.78 G/DL
  MEAN CORPUSCULAR VOLUME: 62.97 fL
  MONOCYTE: 1.83%
  NEUTROPHIL: 10%
  NUCLEATED RED BLOOD CELLS: 0 /100WBC
  PLATELET COUNT: 1274.5 x10E3/uL
  ALANINE AMINOTRANSFERASE: 76.83 u/L
  ALBUMIN: 3.97 G/DL
  ALKALINE PHOSPHATASE: 347 u/L
  ASPARTATE AMINOTRANSFERASE: 97.17 u/L
  BLOOD UREA NITROGEN: 14.33 mg/dL
  CARBON DIOXIDE: 25.5 mmol/L
  CHLORIDE: 100.33 MEQ/L
  CHOLESTEROL: 68.67 mg/dL
  CREATINE PHOSPHOKINASE: 659.17 u/L
  CREATININE: 0.32 mg/dL
  GLUCOSE: 160.67 mg/dL
  LACTATE DEHYDROGENASE: 271.5 u/L
  LIPASE: 11.67 u/L
  PHOSPHORUS: 10.65 mg/dL
  POTASSIUM: 5.95 MEQ/L
  SODIUM: 139.65 MEQ/L
  TOTAL BILIRUBIN: 0.2 mg/dL
  TOTAL PROTEIN: 5.72 G/DL
  URIC ACID: 1.37 mg/dL
[2]
  ABSOLUTE BASOPHIL: 0 CELLS/uL
  ABSOLUTE EOSINOPHIL: 331.5 CELLS/uL
  ABSOLUTE LYMPHOCYTE: 15021.67 CELLS/uL
  ABSOLUTE MONOCYTE: 376.5 CELLS/uL
  ABSOLUTE SEGMENTED NEUTROPHIL: 3070.33 CELLS/uL
  BASOPHIL: 0%
  EOSINOPHIL: 1.83%
  ERYTHROCYTE COUNT: 5.24 x10E6/uL
  HEMATOCRIT: 33.22%
  HEMOGLOBIN: 13.2 G/DL
  LEUKOCYTE COUNT: 18.8 x10E3/uL
  LYMPHOCYTE: 79.67%
  MEAN CORPUSCULAR HEMOGLOBIN: 25.17 pg
  MEAN CORPUSCULAR HEMOGLOBIN CONCENTRATION: 39.73 G/DL
  MEAN CORPUSCULAR VOLUME: 63.38 fL
  MONOCYTE: 2%
  NEUTROPHIL: 16.5%
  NUCLEATED RED BLOOD CELLS: 0 /100WBC
  PLATELET COUNT: 1142.67 x10E3/uL
  ALANINE AMINOTRANSFERASE: 52.5 u/L
  ALBUMIN: 3.9 G/DL
  ALKALINE PHOSPHATASE: 284.5 u/L
  ASPARTATE AMINOTRANSFERASE: 81.33 u/L
  BLOOD UREA NITROGEN: 16 mg/dL
  CARBON DIOXIDE: 25.33 mmol/L
  CHLORIDE: 99.5 MEQ/L
  CHOLESTEROL: 74.83 mg/dL
  CREATINE PHOSPHOKINASE: 448.33 u/L
  CREATININE: 0.37 mg/dL
  GLUCOSE: 164.17 mg/dL
  LACTATE DEHYDROGENASE: 290.67 u/L
  LIPASE: 6.83 u/L
  PHOSPHORUS: 11.5 mg/dL
  POTASSIUM: 6.28 MEQ/L
  SODIUM: 139.5 MEQ/L
  TOTAL BILIRUBIN: 0.13 mg/dL
  TOTAL PROTEIN: 5.55 G/DL
  URIC ACID: 1.12 mg/dL
[3]
  ABSOLUTE BASOPHIL: 0 CELLS/uL
  ABSOLUTE EOSINOPHIL: 104 CELLS/uL
  ABSOLUTE LYMPHOCYTE: 15747.67 CELLS/uL
  ABSOLUTE MONOCYTE: 360 CELLS/uL
  ABSOLUTE SEGMENTED NEUTROPHIL: 1788.33 CELLS/uL
  BASOPHIL: 0%
  EOSINOPHIL: 0.67%
  ERYTHROCYTE COUNT: 5.61 x10E6/uL
  HEMATOCRIT: 36.13%
  HEMOGLOBIN: 13.97 G/DL
  LEUKOCYTE COUNT: 18 x10E3/uL
  LYMPHOCYTE: 87.33%
  MEAN CORPUSCULAR HEMOGLOBIN: 24.9 pg
  MEAN CORPUSCULAR HEMOGLOBIN CONCENTRATION: 38.63 G/DL
  MEAN CORPUSCULAR VOLUME: 64.4 fL
  MONOCYTE: 2%
  NEUTROPHIL: 10%
  NUCLEATED RED BLOOD CELLS: 0.33 /100WBC
  PLATELET COUNT: 1151.67 x10E3/uL
  ALANINE AMINOTRANSFERASE: 77 u/L
  ALBUMIN: 4.2 G/DL
  ALKALINE PHOSPHATASE: 443 u/L
  ASPARTATE AMINOTRANSFERASE: 79.33 u/L
  BLOOD UREA NITROGEN: 10.67 mg/dL
  CARBON DIOXIDE: 22.67 mmol/L
  CHLORIDE: 102.67 MEQ/L
  CHOLESTEROL: 51 mg/dL
  CREATINE PHOSPHOKINASE: 260 u/L
  CREATININE: 0.12 mg/dL
  GLUCOSE: 164.33 mg/dL
  LACTATE DEHYDROGENASE: 234.67 u/L
  LIPASE: 10.67 u/L
  PHOSPHORUS: 11.63 mg/dL
  POTASSIUM: 6.08 MEQ/L
  SODIUM: 142.6 MEQ/L
  TOTAL BILIRUBIN: 0.13 mg/dL
  TOTAL PROTEIN: 6.07 G/DL
  URIC ACID: 1.27 mg/dL
[4]
  ABSOLUTE BASOPHIL: 0 CELLS/uL
  ABSOLUTE EOSINOPHIL: 252.67 CELLS/uL
  ABSOLUTE LYMPHOCYTE: 15009.33 CELLS/uL
  ABSOLUTE MONOCYTE: 640.67 CELLS/uL
  ABSOLUTE SEGMENTED NEUTROPHIL: 3164 CELLS/uL
  BASOPHIL: 0%
  EOSINOPHIL: 1.33%
  ERYTHROCYTE COUNT: 5.76 x10E6/uL
  HEMATOCRIT: 36.13%
  HEMOGLOBIN: 14 G/DL
  LEUKOCYTE COUNT: 19.07 x10E3/uL
  LYMPHOCYTE: 78.67%
  MEAN CORPUSCULAR HEMOGLOBIN: 24.33 pg
  MEAN CORPUSCULAR HEMOGLOBIN CONCENTRATION: 38.73 G/DL
  MEAN CORPUSCULAR VOLUME: 62.87 fL
  MONOCYTE: 3.33%
  NEUTROPHIL: 16.67%
  NUCLEATED RED BLOOD CELLS: 0 /100WBC
  PLATELET COUNT: 1265.67 x10E3/uL
  ALANINE AMINOTRANSFERASE: 70.67 u/L
